For 31 compounds, IC50 results are on record in patent publication US20200216439A1, “HETERO-1,5,6,7-TETRAHYDRO-4H-INDOL-4-ONES” (BAYER PHARMA AKTIENGESELLSCHAFT, priority 2015, published 2020).

The experiment concerns the target T1, catalytic domain of human Bub1 (amino acids 704-1085) (Homo sapiens, UniProt O43683).
T1 construct: catalytic domain of human Bub1 (amino acids 704-1085); His6 (N); made in house; host or cells: Hi5 insect cells
Briefly: Bub1 kinase assay (TR-FRET). In kind it is biochemical. The note with it: TR-FRET; ATP 10 μM, peptide substrate 1 μM; 60 min at 22° C.; average or median if tested more than once; read-out: Inhibition of Bub1 kinase IC50. Put shortly:
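Human Bub1 catalytic domain (704-1085, His6-tagged, Hi5-expressed, ~200 ng/mL) preincubated with compound 15 min at 22 °C, then reacted 60 min at 22 °C with 10 μM ATP and 1 μM biotinylated peptide substrate, pH 7.5. EDTA stop; TR-FRET 665/620 ratio; IC50 from 4-parameter fit, 11 concentrations in duplicate.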
Background: TR-FRET usually uses a lanthanide donor and a delayed reading to cut background.

T1 sequence (O43683 704-1085): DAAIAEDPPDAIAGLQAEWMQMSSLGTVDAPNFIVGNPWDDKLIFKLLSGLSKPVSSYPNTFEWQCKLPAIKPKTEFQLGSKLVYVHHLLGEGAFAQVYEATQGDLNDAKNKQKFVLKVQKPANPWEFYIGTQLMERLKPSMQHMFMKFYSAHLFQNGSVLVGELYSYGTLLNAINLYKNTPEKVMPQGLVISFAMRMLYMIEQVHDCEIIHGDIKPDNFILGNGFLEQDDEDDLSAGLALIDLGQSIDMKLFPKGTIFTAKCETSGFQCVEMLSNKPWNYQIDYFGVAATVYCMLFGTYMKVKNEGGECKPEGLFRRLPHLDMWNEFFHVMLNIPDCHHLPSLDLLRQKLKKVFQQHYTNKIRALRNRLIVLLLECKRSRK

As a reminder, the IC50 is the midpoint of a concentration-inhibition curve. For the compound `CC(=O)Nc1cc(-c2[nH]c3c(c2Nc2ccccc2)C(=O)CN(C(=O)c2cccnc2)C3)ccn1` [Example 115, N-{4-[4-Oxo-3-(phenylamino)-6-(pyridin-3-ylcarbonyl)-4,5,6,7-tetrahydro-1H-pyrrolo[2,3-c]pyridin-2-yl]pyridin-2-yl}acetamide], the half-inhibitory concentration (IC50) was 45 nM. The value for `COc1cnccc1-c1[nH]c2c(c1Nc1ccccc1)C(=O)COC2` [Example 43, 2-(3-Methoxypyridin-4-yl)-3-(phenylamino)-1,7-dihydropyrano[3,4-b]pyrrol-4(5H)-one] was 84 nM; that for `COc1ccc(C(=O)Nc2cc(-c3[nH]c4c(c3Nc3ccccc3)C(=O)CN(C(=O)OC(C)(C)C)C4)ccn2)c(C)c1` [Example 266, tert-Butyl 2-2-[(4-methoxy-2-methylbenzoyl)amino]pyridin-4-yl-4-oxo-3-(phenylamino)-1,4,5,7-tetrahydro-6H-pyrrolo[2,3-c]pyridine-6-carboxylate] was 72 nM. For the compound `CC(=O)Nc1cc(-c2[nH]c3c(c2Nc2ccccc2)C(=O)CN(S(C)(=O)=O)C3)ccn1` [Example 32, N-{4-[6-(Methylsulfonyl)-4-oxo-3-(phenylamino)-4,5,6,7-tetrahydro-1H-pyrrolo[2,3-c]pyridin-2-yl]pyridin-2-yl}acetamide], the 50% inhibitory concentration (IC50) was 4 nM. The value for `O=C1CNCc2[nH]c(-c3ccncc3)c(Nc3ccccc3)c21` [Example 14] was 47 nM; that for `CN1CCN(C(=O)N2CC(=O)c3c([nH]c(-c4ccncc4OCC(F)(F)F)c3Nc3ccccc3)C2)CC1` [Example 246, 6-[(4-Methylpiperazin-1-yl)carbonyl]-3-(phenylamino)-2-[3-(2,2,2-trifluoroethoxy)pyridin-4-yl]-1,5,6,7-tetrahydro-4H-pyrrolo[2,3-c]pyridin-4-one] was 319 nM.

With `COc1ccc(C(=O)Nc2cc(-c3[nH]c4c(c3Nc3ccccc3)C(=O)CN(C(=O)OC(C)(C)C)C4)ccn2)cc1F` [Example 283, tert-Butyl 2-2-[(3-fluoro-4-methoxybenzoyl)amino]pyridin-4-yl-4-oxo-3-(phenylamino)-1,4,5,7-tetrahydro-6H-pyrrolo[2,3-c]pyridine-6-carboxylate], the IC50 is 38 nM. The figure for `CC(C)(C)OC(=O)N1CC(=O)c2c([nH]c(-c3ccnc(NC(=O)[C@@H]4C[C@@H]4F)c3)c2Nc2ccccc2)C1` [Example 196, tert-Butyl 3-anilino-2-[2-({[(1S,2S)-2-fluorocyclopropyl]carbonyl}amino)pyridin-4-yl]-4-oxo-1,4,5,7-tetrahydro-6H-pyrrolo[2,3-c]pyridine-6-carboxylate] is 7 nM; for `CCNC(=O)N1CC(=O)c2c([nH]c(-c3ccnc(C)n3)c2Nc2ccccc2)C1` [Example 25, N-Ethyl-2-(2-methylpyrimidin-4-yl)-4-oxo-3-(phenylamino)-1,4,5,7-tetrahydro-6H-pyrrolo[2,3-c]pyridine-6-carboxamide] it is 254 nM; for `CCC(=O)N1CC(=O)c2c([nH]c(-c3ccnc(NC(=O)[C@@H]4C[C@@H]4F)c3)c2Nc2ccccc2)C1` [Example 198, (1S,2S)-2-Fluoro-N-4-[4-oxo-3-(phenylamino)-6-propanoyl-4,5,6,7-tetrahydro-1H-pyrrolo[2,3-c]pyridin-2-yl]pyridin-2-ylcyclopropanecarboxamide] it is 3 nM. The value for `O=C1CSCc2[nH]c(-c3ccncc3Cl)c(Nc3ccccc3)c21` [Example 38, 2-(3-Chloropyridin-4-yl)-3-(phenylamino)-1,7-dihydrothiopyrano[3,4-b]pyrrol-4(5H)-one] was 40 nM; that for `COCCOc1cnccc1-c1[nH]c2c(c1Nc1ccccc1)C(=O)CN(S(C)(=O)=O)C2` [Example 234] was 5 nM; that for `COc1cnccc1-c1[nH]c2c(c1Nc1ccccc1)C(=O)CN(S(=O)(=O)CCC(F)(F)F)C2` [Example 111, 2-(3-Methoxypyridin-4-yl)-3-(phenylamino)-6-[(3,3,3-trifluoropropyl)sulfonyl]-1,5,6,7-tetrahydro-4H-pyrrolo[2,3-c]pyridin-4-one] was 7 nM.

As for `CC(C)C(=O)N1CC(=O)c2c([nH]c(-c3ccncc3)c2Nc2ccccc2)C1` [Example 17], the half-maximal inhibitory concentration (IC50) came to 6 nM.

On to `CS(=O)(=O)N1CC(=O)c2c([nH]c(-c3ccnc(NC(=O)c4cncs4)c3)c2Nc2ccccc2)C1` [Example 151], for which the concentration for half-maximal inhibition (IC50) was 4 nM.

For `O=C1CNCc2[nH]c(-c3ccnc(NC(=O)[C@@H]4C[C@@H]4F)c3)c(Nc3ccccc3)c21` (relative stereo) [Example 136, rel-(1S,2S)—N-[4-(3-Anilino-4-oxo-4,5,6,7-tetrahydro-1H-pyrrolo[2,3-c]pyridin-2-yl)pyridin-2-yl]-2-fluorocyclopropanecarboxamide], the IC50 came to 81 nM. With `CS(=O)(=O)N1CC(=O)c2c([nH]c(-c3ccncc3OCC(F)(F)F)c2Nc2ccccc2)C1` [Example 233, 6-(Methylsulfonyl)-3-(phenylamino)-2-[3-(2,2,2-trifluoroethoxy)pyridin-4-yl]-1,5,6,7-tetrahydro-4H-pyrrolo[2,3-c]pyridin-4-one], the half-inhibitory concentration (IC50) was determined as 36 nM. The value for `CC(=O)Nc1cc(-c2[nH]c3c(c2Nc2ccccc2)C(=O)CN(C(=O)c2ccccn2)C3)ccn1` [Example 114, N-{4-[4-Oxo-3-(phenylamino)-6-(pyridin-2-ylcarbonyl)-4,5,6,7-tetrahydro-1H-pyrrolo[2,3-c]pyridin-2-yl]pyridin-2-yl}acetamide] was 63 nM; that for `CC(C)(O)CC(=O)N1CC(=O)c2c([nH]c(-c3ccncc3)c2Nc2ccccc2)C1` [Example 57, 6-(3-Hydroxy-3-methylbutanoyl)-3-(phenylamino)-2-(pyridin-4-yl)-1,5,6,7-tetrahydro-4H-pyrrolo[2,3-c]pyridin-4-one] was 8 nM; that for `O=C1CN(S(=O)(=O)c2cnc[nH]2)Cc2[nH]c(-c3ccnc(NC(=O)[C@@H]4C[C@@H]4F)c3)c(Nc3ccccc3)c21` [Example 204, (1S,2S)-2-Fluoro-N-4-[6-(1H-imidazol-5-ylsulfonyl)-4-oxo-3-(phenylamino)-4,5,6,7-tetrahydro-1H-pyrrolo[2,3-c]pyridin-2-yl]pyridin-2-ylcyclopropanecarboxamide] was 3 nM.

Consider `CC(=O)Nc1cc(-c2[nH]c3c(c2Nc2ccc(F)cc2)C(=O)CN(C(=O)OC(C)C)C3)ccn1` [Example 316, Propan-2-yl 2-[2-(acetylamino)pyridin-4-yl]-3-[(4-fluorophenyl)amino]-4-oxo-1,4,5,7-tetrahydro-6H-pyrrolo[2,3-c]pyridine-6-carboxylate], for which the IC50 was determined as 25 nM. The value for `CC(C)(C)OC(=O)N1CC(=O)c2c([nH]c(-c3ccnc(NC(=O)[C@@H]4C[C@@H]4F)c3)c2Nc2ccccc2)C1` (relative stereo) [Example 120, tert-Butyl 2-[2-({[rel-(1S,2S)-2-fluorocyclopropyl]carbonyl}amino)pyridin-4-yl]-4-oxo-3-(phenylamino)-1,4,5,7-tetrahydro-6H-pyrrolo[2,3-c]pyridine-6-carboxylate] was 9 nM.

`COc1cnccc1-c1[nH]c2c(c1Nc1ccccc1)C(=O)CNC2` [Example 103, 2-(3-Methoxypyridin-4-yl)-3-(phenylamino)-1,5,6,7-tetrahydro-4H-pyrrolo[2,3-c]pyridin-4-one]: the 50% inhibitory concentration (IC50) stood at 138 nM. In the case of `COc1cc(C(=O)Nc2cc(-c3c(Nc4ccccc4)c4c(n3C)CN(C(=O)OC(C)(C)C)CC4=O)ccn2)ccc1F` [Example 256, tert-Butyl 2-2-[(4-fluoro-3-methoxybenzoyl)amino]pyridin-4-yl-1-methyl-4-oxo-3-(phenylamino)-1,4,5,7-tetrahydro-6H-pyrrolo[2,3-c]pyridine-6-carboxylate], the half-maximal inhibitory concentration (IC50) turned out to be 936 nM.

On to `COc1ccc(C(=O)Nc2cc(-c3[nH]c4c(c3Nc3ccccc3)C(=O)CNC4)ccn2)cc1F` [Example 284, 3-Fluoro-4-methoxy-N-4-[4-oxo-3-(phenylamino)-4,5,6,7-tetrahydro-1H-pyrrolo[2,3-c]pyridin-2-yl]pyridin-2-ylbenzamide], for which the IC50 amounted to 52 nM. The figure for `CC(C)(C)C(=O)N1CC(=O)c2c([nH]c(-c3ccnc(NC(=O)[C@@H]4C[C@@H]4F)c3)c2Nc2ccccc2)C1` [Example 213] is 2 nM; for `O=C1CNCc2[nH]c(-c3ccnc(NC(=O)[C@@H]4C[C@@H]4F)c3)c(Nc3ccccc3)c21` [Example 197, (1S,2S)—N-[4-(3-anilino-4-oxo-4,5,6,7-tetrahydro-1H-pyrrolo[2,3-c]pyridin-2-yl)pyridin-2-yl]-2-fluorocyclopropanecarboxamide] it is 40 nM. Consider `COC(=O)N1CC(=O)c2c([nH]c(-c3ccnc(NC(=O)C(C)(C)F)c3)c2Nc2ccccc2)C1` [Example 144, Methyl 3-anilino-2-{2-[(2-fluoro-2-methylpropanoyl)amino]pyridin-4-yl}-4-oxo-1,4,5,7-tetrahydro-6H-pyrrolo[2,3-c]pyridine-6-carboxylate], for which the IC50 was 20 nM. As to `O=C1COCc2[nH]c(-c3ccnc(NC(=O)C4CC4)c3)c(Nc3ccccc3)c21` [Example 35, N-{4-[4-Oxo-3-(phenylamino)-1,4,5,7-tetrahydropyrano[3,4-b]pyrrol-2-yl]pyridin-2-yl}cyclopropanecarboxamide], the IC50 was 55 nM. The figure for `CS(=O)(=O)N1CC(=O)c2c([nH]c(-c3ccncc3OCC(F)F)c2Nc2ccccc2)C1` [Example 232, 3-Anilino-2-[3-(2,2-difluoroethoxy)pyridin-4-yl]-6-(methylsulfonyl)-1,5,6,7-tetrahydro-4H-pyrrolo[2,3-c]pyridin-4-one] is 12 nM.

For `CC(=O)N1CC(=O)c2c([nH]c(-c3ccncc3OCC(F)F)c2Nc2ccccc2)C1` [Example 228, 6-Acetyl-3-anilino-2-[3-(2,2-difluoroethoxy)pyridin-4-yl]-1,5,6,7-tetrahydro-4H-pyrrolo[2,3-c]pyridin-4-one], the IC50 came to 33 nM.
